Reference: article PMC8234218, “In Vitro and In Vivo Efficacies of the Linear and the Cyclic Version of an All-D-Enantiomeric Peptide Developed for the Treatment of Alzheimer’s Disease” (International Journal of Molecular Sciences, 2021)
Where a SMILES comes first, the peptide text is derived from it. [ ]: non-standard residue; d: D form.

Experiments:
Aβ(1-42)-oligomers = biological target: T1, Aβ(1-42)-oligomers (Homo sapiens, UniProt P05067); test: QIAD assay, Aβ(1-42) oligomer elimination; assay type: biochemical; conditions: 80 µM Aβ(1-42) preincubated 2 h, 20 µM D-peptide, 30 min coincubation, density gradient fractions 4-6, RP-HPLC UV 214 nm, N = 2-5
T1 construct: Synthetic Aβ(1-42) and (Gln^22, Asn^23)-Amyloid β-Protein (1-40) (D/I Aβ) with >95% purity were purchased; purchased Bachem (Bubendorf, Switzerland); host or cells: chemical synthesis
Method: (§1) According to Brener et al., a QIAD assay was performed in order to evaluate the Aβ(1-42) or D/I Aβ oligomer elimination efficacies of RD2D3 and cRD2D3 [18]. In short, 80 µM lyophilized Aβ(1-42) or 40 µM D/I Aβ was preincubated for 2 h or 15 min, respectively, to enrich Aβ-oligomers. Afterwards, either 20 µM RD2D3 or cRD2D3 for Aβ(1-42) or 10 µM RD2D3 or cRD2D3 for D/I Aβ were added to the preincubated solution and coincubated for additional 30 min. Subsequently, the samples were loaded on the top of a density gradient (5–50% (w/v) iodixanol (OptiPrep, Sigma-Aldrich, Darmstadt, Germany)) followed by an ultracentrifugation step (3 h at 4 °C and 259000× g (Optima TL-100, Beckman Coulter, Brea, CA, USA)). Following the ultracentrifugation, 14 fractions (140 µL each) were harvested by upward displacement. Fraction 15 contains the dissolved pellet in 6 M guanidine hydrochloride solution. Top fractions 1–2 contained Aβ-monomers, fractions 4–6 contained the Aβ-oligomers, which are of special interest, and the bottom fractions 11–14 contained high molecular weight (co-)precipitates or aggregated Aβ. Aβ(1-42) or D/I Aβ concentrations of each fraction were determined via analytical RP-HPLC and UV absorbance detection at 214 nm.

Aβ(1-42) = biological target: T2, Aβ(1-42) (Homo sapiens, UniProt P05067); test: SPR, Aβ(1-42) immobilized, D-peptide as analyte; assay type: binding; conditions: SPR Biacore T200, Aβ(1-42) immobilized on CM-5 chip by amine coupling, D-peptide analyte 0.625-20 µM, multicycle, 10 mM HEPES + 50 mM NaCl pH 7.4, 25 °C, steady-state Langmuir 1:1 fit (Fig. 1a)
T2 construct: Synthetic Aβ(1-42) and (Gln^22, Asn^23)-Amyloid β-Protein (1-40) (D/I Aβ) with >95% purity were purchased; purchased Bachem (Bubendorf, Switzerland); host or cells: chemical synthesis
Method: The dissociation constant (KD) of RD2D3 and cRD2D3 binding to Aβ(1-42) and D/I Aβ was determined by SPR spectroscopy using a Biacore T200 instrument (Biacore, GE Healthcare, Uppsala, Sweden). Aβ(1-42) or D/I Aβ was used as the ligand, while RD2D3 and cRD2D3 were used as the analyte or vice versa.
By using Aβ(1-42) or D/I Aβ as a ligand, it was immobilized onto a series S CM-5 sensor chip (GE Healthcare, Uppsala, Sweden) by amine coupling. In short, the flow cells were activated by a mixture of 50 mM N-hydroxysuccinimide (NHS) and 16.1 mM N-Ethyl-N’-(dimethylaminopropyl)carbodiimide (EDC) (XanTec, Düsseldorf, Germany) for 7 min. Aβ(1-42) or D/I Aβ were dissolved to a final concentration of 50 µg/mL in 10 mM sodium acetate pH 5 (AppliChem, Darmstadt, Germany) and injected over one of the activated flow cells to a final signal of 1700 RU. After the immobilization, the ligand and reference flow cells were quenched by injecting 1 M ethanolamine pH 8.5 (XanTec, Düsseldorf, Germany) for 7 min. […] The peptides were diluted in the running buffer to the following concentrations: 20 µM, 10 µM, 5 µM, 2.5 µM, 1.25 µM and 0.625 µM. All samples were injected over the flow cells for 180 s, followed by a dissociation step of 600 s with running buffer. Regeneration of the sensor chip was accomplished by a 45 s injection of 2 M of guanidinium hydrochloride (AppliChem, Darmstadt, Germany). […]

D/I Aβ-oligomers = biological target: T3, D/I Aβ-oligomers (Homo sapiens, UniProt P05067, D694N/E693Q); test: QIAD assay, D/I Aβ oligomer elimination; assay type: biochemical; conditions: 40 µM D/I Aβ preincubated 15 min, 10 µM D-peptide, 30 min coincubation, density gradient fractions 4-6, RP-HPLC UV 214 nm, N = 2-5
T3 construct: (Gln^22, Asn^23)-Amyloid β-Protein (1-40) (D/I Aβ); purchased Bachem (Bubendorf, Switzerland); host or cells: chemical synthesis
Method: as §1

| Structure (SMILES) | Elimination of toxic Aβ(1-42)-oligomers (QIAD) (Aβ(1-42)-oligomers) [%] | Kd (Aβ(1-42)) [µM] | Elimination of toxic D/I Aβ-oligomers (QIAD) (D/I Aβ-oligomers) [%] |
| --- | --- | --- | --- |
| CC(C)C[C@H]1NC(=O)[C@@H](CCCNC(=N)N)NC(=O)[C@@H]([C@H](C)O)NC(=O)[C@@H](CCCNC(=N)N)NC(=O)[C@H]2CCCN2C(=O)[C@@H](CCCNC(=N)N)NC(=O)[C@@H](CCCNC(=N)N)NC(=O)[C@@H](CCCNC(=N)N)NC(=O)[C@@H](CCCNC(=N)N)NC(=O)[C@@H](CCCNC(=N)N)NC(=O)[C@@H](CCCNC(=N)N)NC(=O)[C@@H](CC(N)=O)NC(=O)[C@@H](Cc2c[nH]cn2)NC(=O)[C@@H]([C@H](C)O)NC(=O)[C@@H](Cc2c[nH]cn2)NC(=O)[C@@H](CC(C)C)NC(=O)[C@@H]([C@H](C)O)NC(=O)[C@H]2CCCN2C(=O)[C@@H](CCCNC(=N)N)NC(=O)[C@@H](CC(N)=O)NC(=O)[C@@H](CCCNC(=N)N)NC(=O)[C@@H](Cc2c[nH]cn2)NC(=O)[C@@H]([C@H](C)O)NC(=O)[C@@H](Cc2c[nH]cn2)NC1=O [cRD2D3] (cyclo([dH][dN][dR][dR][dR][dR][dR][dR][dP][dR][dT][dR][dL][dH][dT][dH][dR][dN][dR][dP][dT][dL][dH][dT])) | 80 | 10.4 ± 0.61 | 100 |
| CC(C)C[C@@H](NC(=O)[C@@H](CCCNC(=N)N)NC(=O)[C@H](NC(=O)[C@@H](CCCNC(=N)N)NC(=O)[C@H]1CCCN1C(=O)[C@@H](CCCNC(=N)N)NC(=O)[C@@H](CCCNC(=N)N)NC(=O)[C@@H](CCCNC(=N)N)NC(=O)[C@@H](CCCNC(=N)N)NC(=O)[C@@H](CCCNC(=N)N)NC(=O)[C@@H](CCCNC(=N)N)NC(=O)[C@@H](CC(N)=O)NC(=O)[C@@H](Cc1c[nH]cn1)NC(=O)[C@H](NC(=O)[C@@H](Cc1c[nH]cn1)NC(=O)[C@@H](CC(C)C)NC(=O)[C@H](NC(=O)[C@H]1CCCN1)[C@H](C)O)[C@H](C)O)[C@H](C)O)C(=O)N[C@H](Cc1c[nH]cn1)C(=O)N[C@@H](C(=O)N[C@H](Cc1c[nH]cn1)C(=O)N[C@H](CCCNC(=N)N)C(=O)N[C@H](CC(N)=O)C(=O)N[C@H](CCCNC(=N)N)C(N)=O)[C@H](C)O [RD2D3] (H-[dP][dT][dL][dH][dT][dH][dN][dR][dR][dR][dR][dR][dR][dP][dR][dT][dR][dL][dH][dT][dH][dR][dN][dR]-NH2) |  | 7.01 ± 0.31 | 94 |
